From patent US20250243196A1, “CITRON KINASE INHIBITORS” (The Cleveland Clinic Foundation, priority 2021, published 2025)

Target: PKCμ(h) (Homo sapiens (Human), UniProt Q15139)
Assay: KinaseProfiler panel
Type: biochemical
Parameters: dose or concentration left out as unconfirmed
Conditions: activity remaining

Chain of PKCμ(h) (Q15139 whole entry): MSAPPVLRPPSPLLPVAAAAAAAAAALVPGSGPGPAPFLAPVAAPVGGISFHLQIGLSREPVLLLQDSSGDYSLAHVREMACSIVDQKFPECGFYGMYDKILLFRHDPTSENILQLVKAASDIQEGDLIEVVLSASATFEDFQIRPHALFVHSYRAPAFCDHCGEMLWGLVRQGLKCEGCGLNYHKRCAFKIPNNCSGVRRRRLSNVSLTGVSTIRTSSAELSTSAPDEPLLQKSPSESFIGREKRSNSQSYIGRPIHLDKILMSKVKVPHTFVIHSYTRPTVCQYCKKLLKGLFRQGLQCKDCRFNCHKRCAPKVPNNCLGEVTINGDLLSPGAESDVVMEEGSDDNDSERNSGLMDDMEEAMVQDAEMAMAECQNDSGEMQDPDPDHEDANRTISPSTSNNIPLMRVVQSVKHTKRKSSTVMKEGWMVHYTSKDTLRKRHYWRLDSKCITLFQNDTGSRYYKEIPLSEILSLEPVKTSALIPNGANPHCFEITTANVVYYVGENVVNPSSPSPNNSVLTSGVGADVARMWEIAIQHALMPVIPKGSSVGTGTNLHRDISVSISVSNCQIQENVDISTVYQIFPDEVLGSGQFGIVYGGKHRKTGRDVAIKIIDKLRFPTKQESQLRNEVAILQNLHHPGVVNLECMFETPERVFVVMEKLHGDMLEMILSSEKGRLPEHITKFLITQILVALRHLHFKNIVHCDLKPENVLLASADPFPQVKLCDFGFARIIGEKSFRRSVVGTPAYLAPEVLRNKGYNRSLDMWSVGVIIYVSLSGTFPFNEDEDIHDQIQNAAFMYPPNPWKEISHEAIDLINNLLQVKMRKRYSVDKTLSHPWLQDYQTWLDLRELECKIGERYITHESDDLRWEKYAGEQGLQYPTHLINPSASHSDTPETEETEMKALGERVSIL

## Cc1cc2c(-c3ccc(NC(=O)[C@H](N)CC(C)(C)C)cc3C)ccnc2[nH]1 [Compound F-90, (2R)-2-Amino-4,4-dimethyl-N-[3-methyl-4-(2-methyl-1H-pyrrolo[2,3-b]pyridin-4-yl)phenyl]pentanamide]
  % Activity: 109%
